We go through seven compounds from patent publication US6608048B2, “Tricyclic protein kinase inhibitors” (Wyeth Holdings, priority 2000, dated 2003).

A word on the melting point: it is the temperature of the solid-liquid transition. The term IC50 denotes the concentration that inhibits the measured activity by half.

SMILES strings stand for the structures.

Data set [1] relates to Human epidermoid tumors (A431). Put plainly: In vivo inhibition of the growth of human epidermoid tumors (A431). The conditions noted are these: for S/T (# of Survivors/# of Treated): Day +21 post tumor staging. How it is done:
BALB/c nu/nu female mice (Charles River, Wilmington, Mass.) were used in the in vivo standard pharmacological test procedures. Human epidermoid carcinoma cells A-431 (American Type Culture Collection, Rockville, Md. #CRL-155) were grown in vitro as described above. A unit of 5×10^6 cells were injected subcutaneously into mice. When tumors attained a mass of between 100 and 150 mg, the mice were randomized into treatment groups (day zero). Mice were treated orally (PO) once a day on days 1 through 10 post staging with doses of either 40, 20, 10, 3 or 1 mg/kg/dose of the compound to be evaluated in 0.2% Klucel. Control animals received no drug. Tumor mass was determined every 7 days [(length×width^2)/2] for 28 days post staging. Relative tumor growth (Mean tumor mass on day 7, 14, and 21 divided by the mean tumor mass on day zero) is determined for each treatment group. The % T/C (Tumor/Control) is determined by dividing the relative tumor growth of the treated group by the relative tumor growth of the placebo group and multiplying by 100. A compound is considered to be active if the % T/C is found to be=42%.

Data set [2] has as its target T1, EGF-R Kinase (recombinant enzyme) (Homo sapiens, UniProt P00533).
T1 construct: containing the EGFR cDNA encoding amino acids 645-1186 preceded by Met-Ala-(Ris)6; made in house; host or cells: Sf9 insect cells, recombinant baculovirus vHcEGFR52
Put plainly: Inhibition of Epidermal Growth Factor Receptor Kinase (EGF-R) using recombinant enzyme. It counts as biochemical. The conditions noted are these: RR-SRC peptide substrate. How it is done: Representative test compounds were evaluated for their ability to inhibit the phosphorylation of the tyrosine residue of a peptide substrate catalyzed by the enzyme epidermal growth factor receptor kinase. […] The enzyme used in this assay is the His-tagged cytoplasmic domain of EGFR. […] A cytoplasmic extract was prepared using 1% Triton X-100 and applied to Ni-NTA column.
Test compounds were made into 10 mg/mL stock solutions in 100% dimethylsulfoxide (DMSO).
The IC50 is the concentration of test compound needed to reduce the total amount of phosphorylated substrate by 50%. The % inhibition of the test compound was determined for at least three different concentrations and the IC50 value was evaluated from the dose response curve.
CPM(control) is in units of counts per minute and was a number expressing the amount of radiolabeled ATP (γ-^33P) incorporated into the RR-SRC peptide substrate by the enzyme after 90 minutes at room temperature in the absence of test compound as measured by liquid scintillation counting. The CPM values were corrected for the background counts produced by ATP in the absence of the enzymatic reaction.

T1 sequence (P00533 669-1210): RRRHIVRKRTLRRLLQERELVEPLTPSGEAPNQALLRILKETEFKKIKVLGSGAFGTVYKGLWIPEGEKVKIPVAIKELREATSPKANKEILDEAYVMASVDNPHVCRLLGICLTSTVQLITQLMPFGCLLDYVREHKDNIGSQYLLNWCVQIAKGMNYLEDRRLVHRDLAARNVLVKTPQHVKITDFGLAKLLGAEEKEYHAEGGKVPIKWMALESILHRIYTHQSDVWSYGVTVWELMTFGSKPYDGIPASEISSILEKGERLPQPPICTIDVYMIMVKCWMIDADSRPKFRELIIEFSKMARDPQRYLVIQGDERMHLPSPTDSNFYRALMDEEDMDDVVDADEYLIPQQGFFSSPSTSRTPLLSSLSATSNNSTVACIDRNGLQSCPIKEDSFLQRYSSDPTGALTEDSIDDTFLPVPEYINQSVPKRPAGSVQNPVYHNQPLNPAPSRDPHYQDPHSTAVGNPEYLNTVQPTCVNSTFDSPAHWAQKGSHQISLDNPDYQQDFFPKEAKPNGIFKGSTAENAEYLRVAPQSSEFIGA

As to `N#Cc1cnc2cc3c(cc2c1Nc1ccc(F)c(Cl)c1)NCCO3` [Example 7, 9-(3-Chloro-4-fluoroanilino)-2,3-dihydro-1H-[1,4]oxazino[3,2-g]quinoline-8-carbonitrile], the melting point was in the range of 244 to 245 °C.
On to `CN(C)C/C=C/C(=O)N1CCOc2cc3ncc(C#N)c(Nc4ccc(F)c(Cl)c4)c3cc21` [Example 9, 9-(3-Chloro-4-fluoroanilino)-1-[(2E)-4-(dimethylamino)-2-butenoyl]-2,3-dihydro-1H-[1,4]oxazino[3,2-g]quinoline-8-carbonitrile], for which the “S/T (# of Survivors/# of Treated)” value in data set [1] (1 mg/kg/dose PO, days 1 through 10) is reported as 5/5; in data set [1] (3 mg/kg/dose PO, days 1 through 10), 5/5; in data set [1] (10 mg/kg/dose PO, days 1 through 10) it was 5/5; in data set [1] (20 mg/kg/dose PO, days 1 through 10), 5/5; in data set [1] (40 mg/kg/dose PO, days 1 through 10), 5/5. In addition, the “RTG (relative tumor growth) Day 21” value in data set [1] (10 mg/kg/dose PO, days 1 through 10, Day 21) is on record as 11.09. The “inhibition of tumor growth in vivo (in words)” value in data set [1] (A431 tumors in mice, PO) is “effective inhibitor of tumor growth in vivo”.
The compound `CN(C)CCCC(=O)N1CCOc2cc3ncc(C#N)c(Nc4ccc(F)c(Cl)c4)c3cc21` [Example 10, 9-(3-Chloro-4-fluoroanilino)-1-[4-(dimethylamino)butanoyl]-2,3-dihydro-1H-[1,4]oxazino[3,2-g]quinoline-8-carbonitrile] showed a melting point of 165 °C. Besides, the half-maximal inhibitory concentration (IC50) in data set [2] amounted to 0.2 µM.
Consider `N#Cc1cnc2cc3c(cc2c1Nc1ccc(F)c(Cl)c1)N(CCCCCl)CCO3` [Example 11, 1-(4-Chlorobutyl)-9-(3-chloro-4-fluoroanilino)-2,3-dihydro-1H-[1,4]oxazino[3,2-g]quinoline-8-carbonitrile], for which the melting point fell in the range of 78 to 79 °C.
Turning to `CN(C)CCCCN1CCOc2cc3ncc(C#N)c(Nc4ccc(F)c(Cl)c4)c3cc21` [Example 12, 9-(3-Chloro-4-fluoroanilino)-1-[4-(dimethylamino)butyl]-2,3-dihydro-1H-[1,4]oxazino[3,2-g]quinoline-8-carbonitrile], the melting point was 105 °C. In data set [2], the half-inhibitory concentration (IC50) amounted to 0.005 µM.
`N#Cc1cnc2cc3c(cc2c1Nc1ccc(Cl)cc1Cl)OCCN3` [Example 22, 9-(2,4-Dichloroanilino)-3,4-dihydro-2H-[1,4]oxazino[2,3-g]quinoline-8-carbonitrile] came in with a melting point of 254 to 255 °C.
In turn, `CCN1CCN(CCCCN2CCOc3cc4c(Nc5ccc(Cl)cc5Cl)c(C#N)cnc4cc32)CC1` [Example 24, 9-(2,4-Dichloroanilino)-4-[4-(4-ethyl-1-piperazinyl)butyl]-3,4-dihydio-2H-[1,4]oxazino[2,3-g]quinoline-8-carbonitrile] registered a melting point of 97 to 98 °C.
